Numbered stars: 1 amine (or outer) side, 2 acyl side, 3 side chain; on linkers, the order of the positions; unused ones are H or OH. Bridge positions count the residues as written; N and C are the ends. Square brackets hold non-standard residues; d marks the D form. Peptide text beside a SMILES is read from it. * marks the point of attachment. Acetyl(1-DOTA-4-piperidyl) = O=C(O)CN1CCN(CC(=O)O)CCN(CC(=O)N2CCC(CC(=O)*)CC2)CCN(CC(=O)O)CC1; DOTA = O=C(O)CN1CCN(CC(=O)O)CCN(CC(=O)*)CCN(CC(=O)O)CC1; Phe(4-Cl) = N[C@@H](Cc1ccc(Cl)cc1)C(=O)O; NMeT = CN[C@H](C(=O)O)[C@@H](C)O; 4Pal = N[C@@H](Cc1ccncc1)C(=O)O; X1 = O=C(CC1CCN([*:1])CC1)[*:2]; NMeK = CN[C@@H](CCCCN)C(=O)O; Tle = CC(C)(C)[C@H](N)C(=O)O; Isovaleryl = CC(C)CC(=O)*; 4Abz = Nc1ccc(C(=O)O)cc1; NHCH2CH2NHMe = CNCCN*; Aib = CC(C)(N)C(=O)O; CO = O=C([*:1])[*:2]; NHBu = CCCCN*

Assay [1] deals with T1, PSMA-expressing C4-2 cells (Homo sapiens, UniProt Q04609).
T1 construct: PSMA-expressing C4-2 cells (ATCC, Cat. No. CRL-3314) were cultured in RPMI-1640; host or cells: C4-2 cells
The assay is described as follows: FACS binding assay (competition with 50 nM PSM-0183). The note with it: pIC50 category of FACS binding, C4-2 cells; read-out: pIC50 [C4-2] CAT (converted). The gist of the method: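 Competition format: fluorescent tracer PSM-0183 (50 nM) displaced from PSMA on C4-2 cells by a test compound titration over 1 h at 4 °C. Bound tracer was quantified as flow-cytometric AF488 median fluorescence after washing. Four-parameter logistic fits of MFI data gave IC50 and pIC50.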
(In general: Flow cytometry measures light scatter and fluorescence of single cells or particles in a stream.)

Assay [2] deals with T2, Fc-fusion protein of human PSMA (hPSMA-Fc) (Homo sapiens, UniProt Q04609).
T2 construct: purchased Acro Biosystems PSA-H5264
The assay can be described thus: Surface plasmon resonance assay (Biacore T200, single cycle kinetic). In kind it is binding. To be noted: pKD category for PSMA SPR activity assay, hPSMA-Fc, 25° C.; read-out: pKD CAT (converted). The procedure, abridged: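 KD, expressed as pKD, came from 1:1 Langmuir fits of reference- and buffer-blank-subtracted SPR data. The runs were single-cycle kinetics at 25° C in HBST/0.1% DMSO over human PSMA-Fc, captured to ~1000 RU on a peptide-coated CM5 surface and regenerated with 10 mM glycine pH 1.5.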
In general terms: In SPR one partner is held on a chip, and binding of the other changes the refractive index at the surface.

T1 sequence (Q04609 whole entry): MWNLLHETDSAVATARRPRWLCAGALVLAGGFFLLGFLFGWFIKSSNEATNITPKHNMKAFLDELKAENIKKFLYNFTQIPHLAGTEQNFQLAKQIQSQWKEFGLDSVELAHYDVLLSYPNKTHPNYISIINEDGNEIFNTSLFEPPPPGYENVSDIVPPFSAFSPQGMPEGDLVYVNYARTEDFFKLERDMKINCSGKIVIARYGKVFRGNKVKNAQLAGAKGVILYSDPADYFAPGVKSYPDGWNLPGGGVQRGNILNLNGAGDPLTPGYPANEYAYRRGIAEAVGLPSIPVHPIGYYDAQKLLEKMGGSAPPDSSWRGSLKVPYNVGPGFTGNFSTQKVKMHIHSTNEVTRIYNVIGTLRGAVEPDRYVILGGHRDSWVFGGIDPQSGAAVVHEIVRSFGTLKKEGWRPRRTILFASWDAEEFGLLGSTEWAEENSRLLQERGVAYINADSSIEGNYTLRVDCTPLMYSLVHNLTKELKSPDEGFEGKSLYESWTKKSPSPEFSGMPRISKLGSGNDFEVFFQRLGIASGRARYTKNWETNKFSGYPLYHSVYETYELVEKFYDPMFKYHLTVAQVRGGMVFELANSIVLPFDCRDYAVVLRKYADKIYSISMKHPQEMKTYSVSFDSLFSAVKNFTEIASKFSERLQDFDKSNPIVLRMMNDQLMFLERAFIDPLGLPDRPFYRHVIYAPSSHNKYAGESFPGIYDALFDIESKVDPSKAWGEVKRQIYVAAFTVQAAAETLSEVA
T2 sequence (Q04609 44-750 limits assumed): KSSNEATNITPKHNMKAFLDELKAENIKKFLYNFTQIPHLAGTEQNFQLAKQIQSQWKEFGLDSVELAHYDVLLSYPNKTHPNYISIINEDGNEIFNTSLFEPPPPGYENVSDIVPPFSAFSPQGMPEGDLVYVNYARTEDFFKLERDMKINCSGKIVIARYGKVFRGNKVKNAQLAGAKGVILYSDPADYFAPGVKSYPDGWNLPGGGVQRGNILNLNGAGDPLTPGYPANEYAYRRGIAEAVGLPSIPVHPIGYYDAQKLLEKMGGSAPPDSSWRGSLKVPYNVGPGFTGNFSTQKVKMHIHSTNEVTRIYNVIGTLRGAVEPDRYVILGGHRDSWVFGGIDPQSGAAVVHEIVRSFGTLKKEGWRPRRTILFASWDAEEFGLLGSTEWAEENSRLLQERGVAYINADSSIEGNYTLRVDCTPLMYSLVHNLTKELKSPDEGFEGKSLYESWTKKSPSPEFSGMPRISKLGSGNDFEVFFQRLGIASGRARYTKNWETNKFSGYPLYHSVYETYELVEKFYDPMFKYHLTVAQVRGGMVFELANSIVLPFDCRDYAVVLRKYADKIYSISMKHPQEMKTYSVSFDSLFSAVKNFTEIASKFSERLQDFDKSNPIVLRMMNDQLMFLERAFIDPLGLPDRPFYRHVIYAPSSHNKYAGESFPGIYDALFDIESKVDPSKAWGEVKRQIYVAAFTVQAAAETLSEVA

`CC(C)CC(=O)NC(C)(C)C(=O)N[C@@H](Cc1ccc(Cl)cc1)C(=O)N[C@H]1CSSC[C@@H](C(=O)N[C@H](C(=O)N[C@H](C(=O)N[C@H](CCCCNC(=O)CN2CCN(CC(=O)O)CCN(CC(=O)O)CCN(CC(=O)O)CC2)C(N)=O)[C@@H](C)O)C(C)(C)C)NC(=O)[C@H](CC(N)=O)NC(=O)C(C)(C)NC(=O)[C@H](CCCNC(=N)N)NC(=O)[C@H](CCCCN)NC1=O` [PSM-0444, Iva-Aib-Pcf-[Cys-Lys-Arg-Aib-Asn-Cys]-Tle-Thr-lys(DOTA)-NH2] (Isovaleryl-[Aib][Phe(4-Cl)]CKR[Aib]NC[Tle]T[dK](DOTA)-NH2; disulfide 3-8): the IC50 in assay [1] is less than 200 nM. Also, the Kd in assay [2] is less than 12.6 nM.

Take `C[C@@H](O)[C@H](NC(=O)[C@@H](NC(=O)[C@@H]1CSSC[C@H](NC(=O)[C@H](Cc2ccc(Cl)cc2)NC(=O)C(C)(C)NC(=O)[C@@H](NC(=O)CC2CCN(C(=O)CN3CCN(CC(=O)O)CCN(CC(=O)O)CCN(CC(=O)O)CC3)CC2)[C@@H](C)O)C(=O)N[C@@H](CCCCN)C(=O)N[C@@H](CCCNC(=N)N)C(=O)NC(C)(C)C(=O)N[C@@H](CC(N)=O)C(=O)N1)C(C)(C)C)C(N)=O` [PSM-0445, DOTA-Cmp-Thr-Aib-Pcf-[Cys-Lys-Arg-Aib-Asn-Cys]-Tle-Thr-NH2] ({DOTA}-[X1]T[Aib][Phe(4-Cl)]CKR[Aib]NC[Tle]T-NH2; disulfide 5-10): in assay [1], the IC50 is less than 200 nM. Also, the Kd in assay [2] is less than 12.6 nM.

For the molecule `C[C@@H](O)[C@H](NC(=O)[C@@H](NC(=O)[C@@H]1CSSC[C@H](NC(=O)[C@H](Cc2ccccc2)NC(=O)C(C)(C)NC(=O)CN2CCN(CC(=O)O)CCN(CC(=O)O)CCN(CC(=O)O)CC2)C(=O)N[C@@H](CCCCN)C(=O)N[C@@H](CCCNC(=N)N)C(=O)NC(C)(C)C(=O)N[C@@H](CC(N)=O)C(=O)N1)C(C)(C)C)C(N)=O` [PSM-0447, DOTA-Aib-Phe-[Cys-Lys-Arg-Aib-Asn-Cys]-Tle-Thr-NH2] ({DOTA}-[Aib]FCKR[Aib]NC[Tle]T-NH2; disulfide 3-8), the IC50 in assay [1] is greater than 3160 nM. Also, the Kd in assay [2] is greater than 501 nM.

In the case of `C[C@@H](O)[C@H](NC(=O)[C@@H](NC(=O)[C@@H]1CSSC[C@H](NC(=O)[C@H](Cc2ccccc2)NC(=O)C(C)(C)NC(=O)[C@@H](NC(=O)c2ccc(NC(=O)CN3CCN(CC(=O)O)CCN(CC(=O)O)CCN(CC(=O)O)CC3)cc2)[C@@H](C)O)C(=O)N[C@@H](CCCCN)C(=O)N[C@@H](CCCNC(=N)N)C(=O)NC(C)(C)C(=O)N[C@@H](CC(N)=O)C(=O)N1)C(C)(C)C)C(N)=O` [PSM-0448, DOTA-Pab-Thr-Aib-Phe-[Cys-Lys-Arg-Aib-Asn-Cys]-Tle-Thr-NH2] ({DOTA-4Abz}-T[Aib]FCKR[Aib]NC[Tle]T-NH2; disulfide 4-9), the IC50 in assay [1] is less than 200 nM. Moreover, the Kd in assay [2] is less than 12.6 nM.

Regarding `CC(C)CC(=O)NC(C)(C)C(=O)N[C@@H](Cc1ccccc1)C(=O)N[C@H]1CSSC[C@@H](C(=O)N[C@H](C(=O)N[C@H](C(N)=O)[C@@H](C)O)C(C)(C)C)NC(=O)[C@H](CC(N)=O)NC(=O)C(C)(C)NC(=O)[C@H](CCCNC(=N)N)NC(=O)[C@H](CCCCN)NC1=O` [PSM-0450, Iva-Aib-Phe-[Cys-Lys-Arg-Aib-Asn-Cys]-Tle-Thr-NH2] (Isovaleryl-[Aib]FCKR[Aib]NC[Tle]T-NH2; disulfide 3-8), in assay [1], the IC50 is less than 200 nM. Moreover, the Kd in assay [2] is less than 12.6 nM.

Take `CC(=O)N[C@H](C(=O)NC(C)(C)C(=O)N[C@@H](Cc1ccccc1)C(=O)N[C@H]1CSSC[C@@H](C(=O)N[C@H](C(=O)N[C@H](C(N)=O)[C@@H](C)O)C(C)(C)C)NC(=O)[C@H](CC(N)=O)NC(=O)C(C)(C)NC(=O)[C@H](CCCNC(=N)N)NC(=O)[C@H](CCCCN)N(C)C1=O)[C@@H](C)O` [PSM-0451, Ac-Thr-Aib-Phe-[Cys-Nmk-Arg-Aib-Asn-Cys]-Tle-Thr-NH2] (Ac-T[Aib]FC[NMeK]R[Aib]NC[Tle]T-NH2; disulfide 4-9): the IC50 in assay [1] is 200 to 1260 nM. Also, the Kd in assay [2] was 12.6 to 126 nM.

As to `CCCCNC(=O)N[C@H](C(=O)NC(C)(C)C(=O)N[C@@H](Cc1ccc(Cl)cc1)C(=O)N[C@H]1CSSC[C@@H](C(=O)N[C@H](C(=O)N[C@H](C(=O)N[C@H](CCCCNC(=O)CC2CCN(C(=O)CN3CCN(CC(=O)O)CCN(CC(=O)O)CCN(CC(=O)O)CC3)CC2)C(N)=O)[C@@H](C)O)C(C)(C)C)NC(=O)[C@H](CC(N)=O)NC(=O)C(C)(C)NC(=O)[C@H](CCCNC(=N)N)NC(=O)[C@H](CCCCN)NC1=O)[C@@H](C)O` [PSM-0452, nBuCAyl-Thr-Aib-Pcf-[Cys-Lys-Arg-Aib-Asn-Cys]-Tle-Thr-lys (DOTA-Cmp)-NH2] ({NHBu-CO}-T[Aib][Phe(4-Cl)]CKR[Aib]NC[Tle]T[dK](Acetyl(1-DOTA-4-piperidyl))-NH2; disulfide 4-9), the IC50 in assay [1] is less than 200 nM. Besides, in assay [2], the Kd was less than 12.6 nM.

Consider `CC(=O)N[C@H](C(=O)NC(C)(C)C(=O)N[C@@H](Cc1ccccc1)C(=O)N[C@H]1CSSC[C@@H](C(=O)N[C@H](C(=O)N[C@@H](CC(C)C)C(N)=O)C(C)(C)C)NC(=O)[C@H](CC(N)=O)NC(=O)C(C)(C)NC(=O)[C@H](CCCNC(=N)N)NC(=O)[C@H](CCCCN)NC1=O)[C@@H](C)O` [PSM-0453, Ac-Thr-Aib-Phe-[Cys-Lys-Arg-Aib-Asn-Cys]-Tle-Leu-NH2] (Ac-T[Aib]FCKR[Aib]NC[Tle]L-NH2; disulfide 4-9), for which the IC50 in assay [1] was less than 200 nM. Besides, in assay [2], the Kd was less than 12.6 nM.

Turning to `C[C@@H](O)[C@H](NC(=O)[C@@H](NC(=O)[C@@H]1CSSC[C@H](NC(=O)[C@H](Cc2ccncc2)NC(=O)C(C)(C)NC(=O)[C@@H](NC(=O)CC2CCN(C(=O)CN3CCN(CC(=O)O)CCN(CC(=O)O)CCN(CC(=O)O)CC3)CC2)[C@@H](C)O)C(=O)N[C@@H](CCCCN)C(=O)N[C@@H](CCCNC(=N)N)C(=O)NC(C)(C)C(=O)N[C@@H](CC(N)=O)C(=O)N1)C(C)(C)C)C(N)=O` [PSM-0454, DOTA-Cmp-Thr-Aib-Ppa-[Cys-Lys-Cit-Aib-Asn-Cys]-Tle-Thr-NH2] ({DOTA}-[X1]T[Aib][4Pal]CKR[Aib]NC[Tle]T-NH2; disulfide 5-10), the IC50 in assay [1] is 1260 to 3160 nM. In addition, in assay [2], the Kd was 126 to 501 nM.

On to `C[C@H](NC(=O)[C@H]([C@@H](C)O)N(C)C(=O)CC1CCN(C(=O)CN2CCN(CC(=O)O)CCN(CC(=O)O)CCN(CC(=O)O)CC2)CC1)C(=O)N[C@@H](Cc1ccc(Cl)cc1)C(=O)N[C@H]1CSSC[C@@H](C(=O)N[C@H](C(=O)N[C@H](C(N)=O)[C@@H](C)O)C(C)(C)C)NC(=O)[C@H](CC(N)=O)NC(=O)C(C)(C)NC(=O)[C@H](CCCNC(=N)N)NC(=O)[C@H](CCCCN)NC1=O` [PSM-0455, DOTA-Cmp-Nmt-Ala-Pcf-[Cys-Lys-Arg-Aib-Asn-Cys]-Tle-Thr-NH2] ({DOTA}-[X1][NMeT]A[Phe(4-Cl)]CKR[Aib]NC[Tle]T-NH2; disulfide 5-10), for which, in assay [1], the IC50 was 200 to 1260 nM. In addition, in assay [2], the Kd is 126 to 501 nM.

With `CNCCNC(=O)[C@@H](NC(=O)[C@@H]1CSSC[C@H](NC(=O)[C@H](Cc2ccc(Cl)cc2)NC(=O)C(C)(C)NC(=O)[C@@H](NC(=O)CC2CCN(C(=O)CN3CCN(CC(=O)O)CCN(CC(=O)O)CCN(CC(=O)O)CC3)CC2)[C@@H](C)O)C(=O)N[C@@H](CCCCN)C(=O)N[C@@H](CCCNC(=N)N)C(=O)NC(C)(C)C(=O)N[C@@H](CC(N)=O)C(=O)N1)C(C)(C)C` [PSM-0456, DOTA-Cmp-Thr-Aib-Pcf-[Cys-Lys-Arg-Aib-Asn-Cys]-Tle-en(Me)] ({DOTA}-[X1]T[Aib][Phe(4-Cl)]CKR[Aib]NC[Tle]-NHCH2CH2NHMe; disulfide 5-10), the IC50 in assay [1] was less than 200 nM. Also, in assay [2], the Kd is 12.6 to 126 nM.

Source of the values: patent US20260083865A1, “PROSTATE SPECIFIC MEMBRANE ANTIGEN (PSMA) LIGANDS AND USE THEREOF” (priority 2022, published 2026).
